Reference: publication PMC5736709, “Unravelling the specificity and mechanism of sialic acid recognition by the gut symbiont Ruminococcus gnavus” (Nature Communications, 2017)
Several values for one entry are separate records, joined by “and”; a condition that tells them apart may be missing. Equal values may be shown once. Entries after “also recorded” stand apart in the source; their conditions may differ. Read-outs that look alike come from different tables or passages of the source.

Legend:
Set-up in all cases: species or system Ruminococcus gnavus ATCC 29149
RgCBM40 [1] = target: T1, RgCBM40 (Mediterraneibacter gnavus (Ruminococcus gnavus), UniProt A7B557); assay: STD NMR of sialoglycans with RgCBM40 WT; details: 1 mM sialoglycan, 50 μM RgCBM40 WT, 288 K; 'exception' = monosaccharides for which binding was not detected
T1 sequence (A7B557 entry or part of it): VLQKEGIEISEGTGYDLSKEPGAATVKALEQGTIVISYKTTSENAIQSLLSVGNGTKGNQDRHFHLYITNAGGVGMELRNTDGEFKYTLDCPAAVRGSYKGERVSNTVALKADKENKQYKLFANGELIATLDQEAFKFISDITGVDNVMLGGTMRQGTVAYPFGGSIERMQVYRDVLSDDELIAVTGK
Procedure: ^1H and ^13C resonance assignment for all the sugars was performed on the bases of 1D ^1H, 2D DQF-COSY, TOCSY, HSQC and NOESY experiments run on the free ligands in unbuffered D2O, pH 7.0. For STD NMR experiments, all the samples consisted of 1 mM sialoglycans and 50 μM RgCBM40 (WT or I95A mutant) in D2O buffer solution of 10 mM Tris-d11 pH 7.8 and 100 mM NaCl (ligand: protein ratio 20:1). An STD pulse sequence that included 2.5 ms and 5 ms trim pulses and a 3 ms spoil gradient was used. Saturation was achieved applying a train of 50 ms Gaussian pulses (0.40 mW) on the f2 channel, at 0.60 p.p.m. (on-resonance experiments) and 40 p.p.m. (off-resonance experiments). The broad protein signals were removed using a 40 ms spinlock (T1ρ) filter. All the experiments were recorded at ^1H frequency of 800.23 MHz on a Bruker Avance III spectrometer equipped with a 5 mm probe TXI 800 MHz H-C/N-D-05 Z BTO, at 288 K. For all the sialoglycans in the presence of RgCBM40, an STD experiment with a saturation time of 2 s and a relaxation delay of 5 s was performed, as a first test for binding. For the confirmed binders, the STD NMR experiments were carried out at different saturation times (0.5, 1, 2, 3, 4 and 5 s) with 1 K scans and relaxation delay of 5 s, in order to obtain the binding epitope mapping. The resulting build-up curves for each proton were fitted mathematically to a mono-exponential equation (y = a×[1-exp(b×x)]), from which the initial slopes (a×b) were obtained. For each ligand, the binding epitope mapping was obtained by dividing the initial slopes by the one of the H7 proton of the corresponding sialic acid ring, to which an arbitrary value of 100% was assigned. This normalisation of the STD values allows the comparison across all the sialoglycans.

RgCBM40 [2] = target: T1, RgCBM40; assay: Sialoglycan microarray binding of RgCBM40; details: for Binding intensity on sialoglycan microarray, fold less: RgCBM40, βR1-linked glycans; for Binding of RgCBM40 on sialoglycan microarray: RgCBM40 at 20 µg ml^−1
Procedure: (§1) Glycan microarrays were fabricated using epoxide-derivatized slides as previously described. Printed glycan microarray slides were blocked by ethanolamine, washed and dried. Slides were then fitted in a multi-well microarray hybridisation cassette (AHC4X8S, ArrayIt, Sunnyvale, CA, USA) to divide into 8 subarrays. The subarrays were blocked with ovalbumin (1% w/v) in PBS (pH 7.4) for 1 h at room temperature, with gentle shaking. Subsequently, the blocking solution was removed and diluted protein samples of RgCBM40 and RgGH33 D282A with various concentrations were added to each subarray. After incubating the samples for 2 h at room temperature with gentle shaking, the slides were washed. Diluted anti-His-HiLyte Flour 555 antibodies in PBS were added to the subarrays, incubated for 1 h at room temperature, washed and dried. The microarray slides were scanned by Genepix 4000B microarray scanner (Molecular Devices Corp., Union City, CA, USA). The data analysis was performed using Genepix Pro 7.0 analysis software (Molecular Devices Corp.). It is important to note that glycans on the array with sialic acid O-acetyl groups undergo gradual losses of these labile ester groups. Therefore, definitive conclusions about 9-O-acetylation are only possible in instances wherein binding is exclusively to the O-acetylated sialoglycan spot, and not to the corresponding non-O-acetylated spot.

RgCBM40 [3] = target: T1, RgCBM40; assay: ITC of sialoglycans binding to RgCBM40 wild type; details: RgCBM40 WT; for Kd: ITC in PBS, 115-230 μM protein in cell, syringe 10 mM sugar (25 mM for Neu5Ac), * = estimate only, Kd too high to determine
Procedure: Isothermal titration calorimetry (ITC) experiments were performed using the PEAQ-ITC system (Malvern, Malvern, UK) with a cell volume of 200 µl. Prior to titration protein samples were exhaustively dialysed into PBS. The ligand was dissolved in the dialysis buffer. The cell protein concentration was 115 µM (except for mutant I95A where it was 173 µM and the wild-type interaction with 6′SL where it was 230 µM) and the syringe ligand concentration was 10 mM (25 mM for Neu5Ac). Controls with titrant (sugar) injected into buffer only were subtracted from the data. Analysis was performed using Malvern software, using a single-binding site model. The stoichiometry of binding sites was set to 1.0 as this was evident from the crystal structure. Quantitative and most qualitative experiments were carried out in triplicate.

RgGH33 D282A = assay: Sialoglycan microarray binding of RgGH33 D282A; details: RgGH33 D282A at 200 µg ml^−1
Procedure: as §1

CC(=O)N[C@H]1C2OC(C(=O)O)(C[C@@H]1O)O[C@@H]2[C@H](O)CO (stereo partly drawn) [2,7-anhydro-Neu5Ac]
Binding to RgCBM40 detected by STD NMR (RgCBM40 [1]): exception

Neu5Gcα3Galβ3GalNAcβR1 [Neu5Gc-TF]
Binding intensity on sialoglycan microarray, fold less (RgCBM40 [2]): 5–10 fold

Neu5,9Ac2α2-6Tn
Binding of RgCBM40 on sialoglycan microarray (RgCBM40 [2]): bound

Neu5Acα6GalαOC3H6N3 [Neu5Ac-STn]
Binding to RgCBM40 detected by STD NMR (RgCBM40 [1]): detected

CC(=O)N[C@H]1[C@H]([C@H](O)[C@H](O)CO)OC(OC[C@H]2OC(O)[C@H](O)[C@@H](O)[C@H]2O)(C(=O)O)C[C@@H]1O (stereo partly drawn) [6′SGal, Neu5Acα6 Gal]
Binding to RgCBM40 detected by STD NMR (RgCBM40 [1]): detected

O=C(CO)N[C@H]1[C@H]([C@H](O)[C@H](O)CO)O[C@@](O[C@H]2[C@@H](O)[C@@H](CO)O[C@@H](O[C@H]3[C@H](O)[C@@H](O)C(O)O[C@@H]3CO)[C@@H]2O)(C(=O)O)C[C@@H]1O (stereo partly drawn) [3′SLGc, Neu5Gcα3Lac]
Kd (RgCBM40 [3]; Kd): 2.69 mM and ~3 mM
Binding to RgCBM40 detected by STD NMR (RgCBM40 [1]): detected

CC(=O)NC1C(O)CC(OC2C(O)C(CO)OC(OC3C(O)C(CO)OC(OCCCN=[N+]=[N-])C3NC(C)=O)C2O)(C(=O)O)OC1C(O)C(O)CO (stereo not drawn) [STFαOC3H6N3]
Binding to RgCBM40 detected by STD NMR (RgCBM40 [1]): detected

Neu5Acα2-6Tn
Binding of RgCBM40 on sialoglycan microarray (RgCBM40 [2]): bound

CC(=O)N[C@H]1[C@H]([C@H](O)[C@H](O)COC(C)=O)O[C@@](O[C@H]2[C@@H](O)[C@@H](CO)O[C@@H](OCCCN=[N+]=[N-])[C@@H]2O)(C(=O)O)C[C@@H]1O [Neu5,9Ac2α3GalβR1]
Binding of RgCBM40 on sialoglycan microarray (RgCBM40 [2]): highest binding

CC(=O)NC1C(O)CC(OC2C(O)C(CO)OC(OC3C(O)C(CO)OC(O)C3NC(C)=O)C2O)(C(=O)O)OC1C(O)C(O)CO (stereo not drawn) [STF, Neu5Acα3Galβ3GalNAc]
Binding of RgGH33 D282A on sialoglycan microarray (RgGH33 D282A): interacted weakly

O=C(CO)N[C@H]1[C@H]([C@H](O)[C@H](O)CO)O[C@@](OC[C@H]2O[C@@H](O[C@H]3[C@H](O)[C@@H](O)C(O)O[C@@H]3CO)[C@H](O)[C@@H](O)[C@H]2O)(C(=O)O)C[C@@H]1O (stereo partly drawn) [6′SLGc, Neu5Gcα6Lac]
Kd (RgCBM40 [3]; Kd): ~11 mM and > 10 mM
Binding to RgCBM40 detected by STD NMR (RgCBM40 [1]): detected

Neu5,9Ac2-TF9Ac2α2-3TF
Binding of RgCBM40 on sialoglycan microarray (RgCBM40 [2]): bound

Neu5Acα3Lacβ [GM3]
Binding of RgGH33 D282A on sialoglycan microarray (RgGH33 D282A): interacted weakly

CC(=O)N[C@H]1[C@H]([C@H](O)[C@H](O)CO)O[C@@](O[C@H]2[C@@H](O)[C@@H](CO)O[C@@H](O[C@H]3[C@H](O)[C@@H](NC(C)=O)C(O)O[C@@H]3CO)[C@@H]2O)(C(=O)O)C[C@@H]1O (stereo partly drawn) [3′SLN, Neu5Acα3LacNAcβ]
Binding to RgCBM40 detected by STD NMR (RgCBM40 [1]): detected
Binding of RgGH33 D282A on sialoglycan microarray (RgGH33 D282A): interacted weakly

Neu5Gcα6GalαOC3H6N3 [Neu5Gc-STn]
Binding to RgCBM40 detected by STD NMR (RgCBM40 [1]): detected

Neu5Acα3Galβ3GalNAcβ3Lac
Binding of RgGH33 D282A on sialoglycan microarray (RgGH33 D282A): interacted weakly

CC(=O)N[C@H]1[C@H]([C@H](O)[C@H](O)CO)O[C@](OC[C@H]2O[C@@H](O[C@H]3[C@H](O)[C@@H](NC(C)=O)C(O)O[C@@H]3CO)[C@H](O)[C@@H](O)[C@H]2O)(C(=O)O)C[C@@H]1O (stereo partly drawn) [6′SLN, Neu5Acα6LacNAc]
Binding to RgCBM40 detected by STD NMR (RgCBM40 [1]): detected

O=C(CO)N[C@H]1[C@H]([C@H](O)[C@H](O)CO)OC(O)(C(=O)O)C[C@@H]1O (stereo partly drawn) [Neu5Gc]
Binding to RgCBM40 (in words) (RgCBM40 [3]): weak binding
Kd (RgCBM40 [3]; read-out: Kd): ~21 mM and ~20 mM
Binding to RgCBM40 detected by STD NMR (RgCBM40 [1]): exception; also recorded: no interaction was observed

α2-3-sialylated Lewis X [3′SLX]
Binding of RgCBM40 on sialoglycan microarray (RgCBM40 [2]): bound

CC(=O)NC1C(O)CC(OC2C(O)C(O)OC(CO)C2O)(C(=O)O)OC1C(O)C(O)CO (stereo not drawn) [3′SGal, Neu5Acα3Gal]
Binding to RgCBM40 detected by STD NMR (RgCBM40 [1]): detected

Neu5Acα2-3TF
Binding of RgCBM40 on sialoglycan microarray (RgCBM40 [2]): bound

Neu5Gc9Acα3Galβ3GalNAcβR1 [Neu5Gc9Ac-TF]
Binding intensity on sialoglycan microarray, fold less (RgCBM40 [2]): 5–10 fold
